Measurements reported in patent US5877019A, “Animal 2-5A-dependent RNases and encoding sequences therefor” (Cleveland Clinic Foundation, priority 1996, dated 1999).
“Also recorded” adds a separate entry of the source. Blank lines part the entries; values can stand above or below the molecule they belong to.

Tests used:
[1] = test system: human 2-5A-dependent RNase; settings: purified enzyme, poly(rU) substrate; for concentration giving maximal activation of 2-5A-dependent RNase: 30 minutes 30° C.
2-5A-dependent RNase [2] = biological target: T1, 2-5A-dependent RNase (Homo sapiens, UniProt Q05823); assay: Divalent cation and ATP effects on 2-5A binding activity of dialyzed enzyme; settings: EDTA/EGTA buffer
T1 sequence (Q05823 1-741): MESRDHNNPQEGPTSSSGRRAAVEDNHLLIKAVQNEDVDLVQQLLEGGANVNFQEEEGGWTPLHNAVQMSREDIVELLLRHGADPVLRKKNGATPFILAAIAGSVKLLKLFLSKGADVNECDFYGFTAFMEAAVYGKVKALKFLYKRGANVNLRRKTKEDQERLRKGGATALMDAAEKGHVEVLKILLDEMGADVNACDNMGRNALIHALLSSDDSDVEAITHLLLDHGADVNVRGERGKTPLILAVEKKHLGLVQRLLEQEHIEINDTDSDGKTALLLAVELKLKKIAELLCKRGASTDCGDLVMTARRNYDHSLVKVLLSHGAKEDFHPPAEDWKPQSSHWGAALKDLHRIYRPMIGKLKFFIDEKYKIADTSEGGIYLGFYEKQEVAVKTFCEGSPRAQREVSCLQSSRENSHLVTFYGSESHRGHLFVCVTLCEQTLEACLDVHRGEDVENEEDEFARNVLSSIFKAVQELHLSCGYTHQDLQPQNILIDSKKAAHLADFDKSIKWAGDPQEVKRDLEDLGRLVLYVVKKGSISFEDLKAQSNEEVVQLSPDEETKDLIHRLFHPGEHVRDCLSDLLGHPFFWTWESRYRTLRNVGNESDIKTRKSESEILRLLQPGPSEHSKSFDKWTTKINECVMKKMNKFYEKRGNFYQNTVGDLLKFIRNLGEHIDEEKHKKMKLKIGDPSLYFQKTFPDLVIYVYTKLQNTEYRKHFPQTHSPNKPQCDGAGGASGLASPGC
Description: (§1) The divalent cation requirements of 2-5A-dependent RNase were determined after extensive dialysis against buffer containing both EDTA and EGTA. More particularly, purified 2-5A-dependent RNase (about 100 μg in 100 μl), post-mono Q column fraction, was dialyzed at 4° C. against 25 mM Tris-HCl (pH 7.4), 2.5 mM EDTA, 2.5 mM EGTA, 14 mM 2-mercaptoethanol, and 100 mM KCl (first against 400 ml for four hours, then against 600 ml for ten hours, and finally against 200 ml of reaction buffer (EDTA and EGTA were reduced to 0.5 mM) for another four hours.
(§2) Activity assays were also performed in the presence of EDTA/EGTA to ensure the chelation of metal ions present in the reagents. […] For the filter binding assay, a ^32 P-labeled and bromine substituted 2-5A analog, p(A2'p)2 (br^8 A2'p)2 A3'-32P]Cp, 10,000 counts per minute per assay, at about 3,000 Ci per mmole, was incubated with fractions containing 2-5A-dependent RNase (or controls) at 4° C. for one hour.

2-5A-dependent RNase [3] = biological target: T1, 2-5A-dependent RNase; assay: Divalent cation and ATP effects on 2-5A-dependent RNase activity of dialyzed enzyme; assay type: biochemical; settings: EDTA/EGTA buffer
Description: as §1, §2

[4] = test system: murine 2-5A-dependent RNase; assay: UV covalent crosslinking of 32P-2-5A probe in presence of unlabeled oligonucleotide competitors; assay type: binding; settings: for competition with binding of the 2-5A probe: competitor 100 nM, recombinant 74 kDa protein (clone ZB1) in wheat germ extract, similar profile for L929 cell enzyme; for concentration of competitor that prevents 2-5A probe binding: probe 2.4 nM, both truncated recombinant (ZB1) and naturally occurring L cell protein
Description: FIG. 2A is a specific affinity of truncated murine 2-5A-dependent RNase for 2-5A. UV covalent crosslinking of the ^32 P-2-5A probe (lanes 1-7) to protein is performed after translation reactions in wheat germ extract (5 μl) with murine 2-5A-dependent RNase mRNA (from clone ZB1) (lanes 1-3) or without added RNA (lane 4) or in extract of interferon treated mouse L cells (100 μg of protein) (lanes 5-7). Reactions are without added competitor (lanes 1, 4, and 5) or in the presence of either trimer core. […] Lanes 8 and 9 are produced by incubating the wheat germ extract with ^35 S-methionine in the absence or presence of 2-5A-dependent RNase mRNA, respectively.
Autoradiograms of the dried SDS/10% polyacrylamide gels are shown. Concentrations of the oligonucleotide competitors are indicated. I is inosine.
The synthesis of the 2-5A probe, p(A2'p)2 (br^8 A2'p)2 A[32P]Cp, and its crosslinking to 2-5A-dependent RNase is performed exactly as described. See Nolan-Sorden, N. L. et al., Anal. Biochem., 184:298-304 (1990). Briefly, the 2-5A probe, about 0.7 to 2.5 nM at […], is incubated for about one hour on ice with cell extract prepared as described, Silverman, R. H. and Krause, D., I.R.L. Press, Oxford. England, pp. 149-193 (1987), in the absence or presence of unlabeled oligonucleotide competitors. Covalent crosslinking is done under a uv lamp (308 nm) for one hour on ice and the proteins are separated on SDS/10% polyacrylamide gels. Filter assays for 2-5A binding activity using the 2-5A probe for about one hour on ice, as described in Knight, M. et al., Nature, 288:189-192 (1980).

[5] = test system: human 2-5A-dependent RNase; assay: UV covalent crosslinking of 2-5A probe in presence of competitors; assay type: binding; settings: competitor 100 nM; recombinant human enzyme in wheat germ extract; same pattern in HeLa cell extract
Description: FIG. 5A is specific affinity of recombinant human 2-5A-dependent RNase for 2-5A. Crosslinking of the 2-5A probe (lanes 1-7) to protein is performed after translation reactions in wheat germ extract (5 μl) with human 2-5A-dependent RNase mRNA (lanes 1-3) or without added RNA (lane 4) or in extract of human interferon α treated (1000 units per ml for 16 h) human HeLa cells (350 μg of protein) (lanes 5-7). […] Incubations with ^35 S-methionine are shown in lanes 8 to 12. Lane 8 is with wheat germ extract and human 2-5A-dependent RNase mRNA. Reticulocyte lysate preadsorbed to 2-5A-cellulose is incubated with human 2-5A-dependent RNase mRNA in the absence (lane 9) or presence (lane 10) of cycloheximide, or in the absence of added mRNA (lane 11). […] The positions and relative molecular masses (in kDa) of the marker proteins are indicated.
The synthesis of the 2-5A probe, p(A2'p)2 (br^8 A2'p)2 A[32P]Cp, and its crosslinking to 2-5A-dependent RNase is performed exactly as described. See Nolan-Sorden, N. L. et al., Anal. Biochem., 184:298-304 (1990). Briefly, the 2-5A probe, about 0.7 to 2.5 nM at […], is incubated for about one hour on ice with cell extract prepared as described, Silverman, R. H. and Krause, D., I.R.L. Press, Oxford. England, pp. 149-193 (1987), in the absence or presence of unlabeled oligonucleotide competitors. […]

[6] = test system: human recombinant 2-5A-dependent RNase; assay: 2-5A-dependent ribonuclease assay, crude extract of recombinant baculovirus-infected insect cells, poly(rU) degradation; settings: activator at 100 nM, thirty minutes
2-5A probe = assay: 2-5A binding activity of nested 3'-deletion clones (filter binding and uv crosslinking); settings: protein expressed in wheat germ extract
Source text: See Example and Knight et al. (1980). The positions of the P-loop motifs and the lengths of the translation products are indicated. Clone ZB1 encodes for amino acids designated as 1-656 in Table II, except for the last 5 amino acid residues which are Lys, Pro, Leu, Ser, and Gly. Clone ZB2 encodes for amino acids designated as 1-619 in Table II. Clone ZB3 encodes for amino acids designated as 1-515 in Table II. Clone ZB5 encodes for amino acids designated as 1-474 in Table II. Clone ZB9 encodes for amino acids designated as 1-403 in Table II. Clone ZB10 encodes for amino acids designated as 1-365 in Table II. Clone ZB13 encodes for amino acids designated as 1-294 in Table II. Clone ZB14 encodes for amino acids designated as 1-265 in Table II. Clone ZB15 encodes for amino acids designated as 1-218 in Table II.
To further define sequences involved in 2-5A binding, nested 3'-deletions of the murine 2-5A-dependent RNase cDNA, clone ZB1, are constructed, transcribed in vitro, and expressed in a wheat germ extract. […] The levels of 2-5A binding activity are determined with the 2-5A probe in both a filter binding assay, Knight, M. et al., Nature, 288:189-192 (1980), and the uv crosslinking assay, Nolan-Sorden, N. L. et al., Anal. Biochem., 184:298-304 (1990), with similar results. Expression of clone ZB11, encoding amino acid residues 1 to 342, results in a loss of only about 26% of the 2-5A binding activity as compared to clone ZB1 (amino acids 1 to 656). Clones intermediate in length between ZB1 and ZB11 all result in significant levels of 2-5A binding activity. […] See also Saraste, M. et al., TIBS, 14:430-434 (1990).
The set of nested 3'-deletions of the truncated murine 2-5A-dependent RNase cDNA, ZB1, is generated with exonuclease III/S1 nuclease digestion followed by filling-in with Klenow DNA Polymerase using the "Erase-A-Base"system (Promega).
The synthesis of the 2-5A probe, p(A2'p)2 (br^8 A2'p)2 A[32P]Cp, and its crosslinking to 2-5A-dependent RNase is performed exactly as described. See Nolan-Sorden, N. L. et al., Anal. Biochem., 184:298-304 (1990). […]

Molecule: pA(2'p5'A)3
concentration giving maximal activation of 2-5A-dependent RNase [1]: 1 nM

effect on 2-5A-binding activity (2-5A-dependent RNase [2]): enhanced
Molecule: [Ca+2] [calcium]
effect on 2-5A-dependent RNase activity (2-5A-dependent RNase [3]): no effect; also recorded: did not enhance ribonuclease activity

fold higher concentration than trimer 2-5A required to prevent probe binding ([4]; both proteins): 500 fold
competition with binding of the 2-5A probe [4]: fails to interfere
concentration of competitor that prevents 2-5A probe binding [4]: 10 µM
competition with binding of the 2-5A probe [5]: not prevented
fold reduced activity as activator relative to 2-5A (5'-triphosphorylated trimer) [1]: more than 100 fold
Molecule: (A2'p)2 A

Molecule: p3 (A2'p)2 A
competition with binding of the 2-5A probe [4]: completely prevents probe binding
concentration of competitor that prevents 2-5A probe binding [4]: about 20 nM
competition with binding of the 2-5A probe [5]: effectively competes
concentration giving maximal activation of 2-5A-dependent RNase [1]: 1 nM
RNA (poly(rU)) degraded [6]: 93%

concentration of competitor that prevents 2-5A probe binding [4]: about 1.0 μM
activation of 2-5A-dependent RNase (in words) [1]: more than ten-fold less effective
fold reduced activity as activator relative to 2-5A (5'-triphosphorylated trimer) [1]: 10 fold
Molecule: p3 I2'pA2'pA

effect on 2-5A-binding activity (2-5A-dependent RNase [2]): greatly stimulated
effect on 2-5A-dependent RNase activity (2-5A-dependent RNase [3]): greatly stimulated
Molecule: [Mg+2] [magnesium]

effect on 2-5A-binding activity (2-5A-dependent RNase [2]): enhanced
effect on 2-5A-dependent RNase activity (2-5A-dependent RNase [3]): inhibitory
Molecule: [Zn+2] [zinc]

Molecule: pppA(2'p5'A)3
concentration giving maximal activation of 2-5A-dependent RNase [1]: 1 nM

Molecule: A(2'p5'A)3
activation of 2-5A-dependent RNase (in words) [1]: enhanced activity

effect on 2-5A-binding activity (2-5A-dependent RNase [2]): greatly stimulated
effect on 2-5A-dependent RNase activity (2-5A-dependent RNase [3]): greatly stimulated
Molecule: [Mn+2] [manganese]

activation of 2-5A-dependent RNase (in words) [1]: enhanced activity
Molecule: A(2'p5'A)4

2-5A binding activity, % of the activity of clone ZB1 (2-5A probe): about 38.3%
B1: clone ZB13: murine 2-5A-dependent RNase deletion, amino acids 1 to 294 (protein, UniProt Q05921 1-294, looked up, fragment)
chain: METPDYNTPQGGTPSAGSQRTVVEDDSSLIKAVQKGDVVRVQQLLEKGADANACEDTWGWTPLHNAVQAGRVDIVNLLLSHGADPHRRKKNGATPFIIAGIQGDVKLLEILLSCGADVNECDENGFTAFMEAAERGNAEALRFLFAKGANVNLRRQTTKDKRRLKQGGATALMSAAEKGHLEVLRILLNDMKAEVDARDNMGRNALIRTLLNWDCENVEEITSILIQHGADVNVRGERGKTPLIAAVERKHTGLVQMLLSREGINIDARDNEGKTALLIAVDKQLKEIVQLLLE

loss of 2-5A binding activity as compared to clone ZB1 (2-5A probe): about 26%
B2: clone ZB11: murine 2-5A-dependent RNase deletion, amino acid residues 1 to 342 (protein, UniProt Q05921 1-342, looked up, fragment)
chain: METPDYNTPQGGTPSAGSQRTVVEDDSSLIKAVQKGDVVRVQQLLEKGADANACEDTWGWTPLHNAVQAGRVDIVNLLLSHGADPHRRKKNGATPFIIAGIQGDVKLLEILLSCGADVNECDENGFTAFMEAAERGNAEALRFLFAKGANVNLRRQTTKDKRRLKQGGATALMSAAEKGHLEVLRILLNDMKAEVDARDNMGRNALIRTLLNWDCENVEEITSILIQHGADVNVRGERGKTPLIAAVERKHTGLVQMLLSREGINIDARDNEGKTALLIAVDKQLKEIVQLLLEKGADKCDDLVWIARRNHDYHLVKLLLPYVANPDTDPPAGDWSPHSSRW

2-5A binding activity, % of the activity of clone ZB1 (2-5A probe): completely lacking
B3: clone ZB15: murine 2-5A-dependent RNase deletion, amino acids 1 to 218, both P-loop motifs deleted (protein, UniProt Q05921 1-218, looked up, fragment)
chain: METPDYNTPQGGTPSAGSQRTVVEDDSSLIKAVQKGDVVRVQQLLEKGADANACEDTWGWTPLHNAVQAGRVDIVNLLLSHGADPHRRKKNGATPFIIAGIQGDVKLLEILLSCGADVNECDENGFTAFMEAAERGNAEALRFLFAKGANVNLRRQTTKDKRRLKQGGATALMSAAEKGHLEVLRILLNDMKAEVDARDNMGRNALIRTLLNWDCENV
